# Results from patent EP0063525A1, “Dibenzazepine tetracyclic derivatives, process for their preparation and pharmaceutical compositions containing them” (CENTRE NATIONAL DE LA RECHERCHE SCIENTIFIQUE (CNRS), priority 1981, dated 1982).
# Read-outs that look alike come from different tables or passages of the source.
# Experiments:
# [1] = test system: Souris; assay: tetrabenazine ptosis; type: in vivo
# Description: (§1) Ce test permet de révéler également une activité antidépressive avec l'avantage d'une lecture plus rapide qu'avec la réserpine.
# (§2) Les souris sont réparties par lots de 5.
# Le ptosis est noté avant l'injection de tétrabénazine, 30 minutes, 60 minutes, 90 minutes et 120 minutes après.
# On a adopté la notation suivante : • - 0 : pour un oeil ouvert, • - 1 : pour un oeil fermé au quart, • - 2 : pour un oeil fermé à moitié, • - 3 : pour un oeil fermé aux trois-quarts, • - 4 : pour un oeil fermé complètement.
# (§3) Le lot témoin comprend 20 souris.
# [2] = test system: Souris; assay: antireserpine activity: reserpine hypothermia; type: in vivo; conditions: réserpine 5 mg/kg i.p. 17 h before
# Description: On note ensuite les températures témoins (réserpine), puis les températures 1, 2, 3 et 4 heures après l'administration des produits étudiés.
# Les animaux sont répartis en lots de 4 animaux et reçoivent par voie intrapéritonéale la réserpine à une dose de 5 mg/kg. 17 heures après cette injection, on mesure la température corporelle de l'animal à l'aide d'une sonde thermocouple introduite dans le rectum; chaque lot reçoit ensuite la substance par voie intrapéritonéale. Le lot témoin reçoit la même quantité de solvant et par la même voie. La température corporelle est ensuite mesurée toutes les heures pendant 4 heures.
# Les résultats sont rassemblés dans un tableau récapitulatif-où sont indiqués : • - la température moyenne pour chaque lot relevée 17 heures après l'injection de la réserpine, • - la moyenne des variations de température pour chaque lot relevées 1,2, 3 et 4 heures après l'injection de la substance étudiée, • - la somme des variations de températures pendant 4 heures, • - le pourcentage d'augmentation de la température pour chaque produit par rapport aux témoins.
# [3] = test system: Souris; assay: tetrabenazine hypothermia; type: in vivo
# Description: as §1
# Les produits sont injectés 30 minutes avant l'administration de tétrabénazine.
# Les températures sont relevées aux temps : 0, 30 minutes, 60 minutes, 90 minutes et 120 minutes.
# as §2
# Les températures sont relevées avant l'injection de tétrabénazine, 30 minutes, 60 minutes, 90 minutes et 120 minutes après.
# as §3
# [4] = test system: souris femelles; assay: acute toxicity in the mouse, intraperitoneal; type: in vivo; conditions: voie intrapéritonéale
# Excerpt: (§4) Les produits ont été administrés par voie intrapéritonéale à des souris femelles dont le poids variait de 18 à 30 g.
# (§5) Les animaux injectés ont été maintenus dans une salle thermostatée, nourris et abreuvés à volonté.
# (§6) La mortalité a été relevée à 1 heure, 4 heures, 24 heures et 48 heures.
# [5] = acute toxicity in the mouse, intraperitoneal; type: in vivo, Souris; conditions: mouse, in vivo, ip, voie intrapéritonéale; for LD50 at 48 h: souris femelles, read-out: DL 50; for mortality at 48 h: read-out: Mortalité %
# Excerpt: as §4, §5, §6
# [6] = product i.p. 50 mg/kg 30 min before tétrabénazine 32 mg/kg i.v.
# [7] = product i.p. 50 mg/kg 30 min before tétrabénazine 32 mg/kg i.v., score 0-4 per eye
# [8] = 100 mg/kg, dead mice of the group
# [9] = 150 mg/kg, dead mice of the group
# [10] = 200 mg/kg, dead mice of the group
# [11] = 250 mg/kg, dead mice of the group
# [12] = product i.p. 100 mg/kg 30 min before tétrabénazine 32 mg/kg i.v.
# [13] = product i.p. 100 mg/kg 30 min before tétrabénazine 32 mg/kg i.v., score 0-4 per eye
# [14] = 500 mg/kg, dead mice of the group
# [15] = 900 mg/kg, dead mice of the group
# [16] = product i.p. 150 mg/kg 30 min before tétrabénazine 32 mg/kg i.v.
# [17] = product i.p. 150 mg/kg 30 min before tétrabénazine 32 mg/kg i.v., score 0-4 per eye
# [18] = 300 mg/kg, dead mice of the group
# [19] = 750 mg/kg, dead mice of the group
# [20] = 1500 mg/kg, dead mice of the group
molecule,measurement,setting,value
"CN(C)CCCN1c2ccccc2C2ON=C(c3ccccc3)C2c2ccccc21 (centres unmarked) [compound 3, (γ-diméthylaminopropyl)-8 phényl-3 trihydro-3a, 8,12b (dibenzo [b,f]isoxazolo [4,5-d])azépine]",inhibition in vivo at 50 mg/kg,"[1]; ip, 2 h, ptosis, product i.p. 50 mg/kg 30 min before tétrabénazine 32 mg/kg i.v., read-out: % de protection",32%
same,Ptosis Total,[1]; [6],"20,4"
same,Ptosis 30 minutes,[1]; [7],"1,6"
same,Ptosis 60 minutes,[1]; [7],"5,2"
same,Ptosis 90 minutes,[1]; [7],"6,8"
same,Ptosis 120 minutes,[1]; [7],"6,8"
same,change in vivo at 50 mg/kg,"[2]; ip, 4 h, product i.p. 50 mg/kg, read-out: % d'augmentation par rapport aux témoins",125%
same,variation de température T= 2h,[2]; product i.p. 50 mg/kg,"+0,9"
same,variation de température T=3h,[2]; product i.p. 50 mg/kg,"+0,9"
same,variation de température T=4h,[2]; product i.p. 50 mg/kg,"+0,1"
same,inhibition in vivo at 50 mg/kg,"[3]; ip, 2 h, hypothermie, product i.p. 50 mg/kg 30 min before tétrabénazine 32 mg/kg i.v., read-out: % de protection",40%
same,Température après tétrabénazine 30 minutes,[3]; [6],"-0,9"
same,Température après tétrabénazine 60 minutes,[3]; [6],"-1,2"
same,Température après tétrabénazine 90 minutes,[3]; [6],"-2,6"
same,Température après tétrabénazine 120 minutes,[3]; [6],"-0,4"
same,Température après tétrabénazine Total,[3]; [6],"-5,1"
same,Mortalité en 1 heure,[4]; [8],0
same,Mortalité en 48 h.,[4]; [8],0
same,Mortalité en 1 heure,[4]; [9],0
same,Mortalité en 48 h.,[4]; [9],0
same,Mortalité en 1 heure,[4]; [10],2
same,Mortalité en 48 h.,[4]; [10],2
same,Mortalité en 1 heure,[4]; [11],5
same,Mortalité en 48 h.,[4]; [11],5
same,LD50 at 48 h,[5],200 mg/kg
same,mortality at 48 h,[5]; 100 mg/kg,0%
same,mortality at 48 h,[5]; 150 mg/kg,0%
same,mortality at 48 h,[5]; 200 mg/kg,40%
same,mortality at 48 h,[5]; 250 mg/kg,100%
"CN(C)CCN1c2ccccc2C2C(c3ccccc3)=NN(c3ccccc3)C2c2ccccc21 (stereo not drawn) [compound 7, (β-diméthylaminoéthyl)-8 diphényl-1,3 tétrahydro-1,3a, 8, 12b (dibenzo [b,f]pyrazolo [3,4-d]) azépine]",inhibition in vivo at 100 mg/kg,"[1]; ip, 2 h, ptosis, product i.p. 100 mg/kg 30 min before tétrabénazine 32 mg/kg i.v., read-out: % de protection",14%
same,Ptosis Total,[1]; [12],"25,8"
same,Ptosis 30 minutes,[1]; [13],"3,8"
same,Ptosis 60 minutes,[1]; [13],7
same,Ptosis 90 minutes,[1]; [13],7
same,Ptosis 120 minutes,[1]; [13],8
same,change in vivo at 100 mg/kg,"[2]; ip, 4 h, product i.p. 100 mg/kg, read-out: % d'augmentation par rapport aux témoins",125%
same,variation de température T= 2h,[2]; product i.p. 100 mg/kg,"+1,1"
same,variation de température T=3h,[2]; product i.p. 100 mg/kg,"+0,7"
same,variation de température T=4h,[2]; product i.p. 100 mg/kg,"+0,1"
same,inhibition in vivo at 100 mg/kg,"[3]; ip, 2 h, hypothermie, product i.p. 100 mg/kg 30 min before tétrabénazine 32 mg/kg i.v., read-out: % de protection",26%
same,Température après tétrabénazine 30 minutes,[3]; [12],"-3,2"
same,Température après tétrabénazine 60 minutes,[3]; [12],"-1,3"
same,Température après tétrabénazine 90 minutes,[3]; [12],-1
same,Température après tétrabénazine 120 minutes,[3]; [12],"-0,8"
same,Température après tétrabénazine Total,[3]; [12],"-6,3"
same,Mortalité en 1 heure,[4]; [11],0
same,Mortalité en 48 h.,[4]; [11],0
same,Mortalité en 1 heure,[4]; [14],0
same,Mortalité en 48 h.,[4]; [14],0
same,Mortalité en 1 heure,[4]; [15],1
same,Mortalité en 48 h.,[4]; [15],1
same,LD50 at 48 h,[5],> 500 mg/kg
same,mortality at 48 h,[5]; 250 mg/kg,0%
same,mortality at 48 h,[5]; 500 mg/kg,0%
"( [1'-(β-hydroxyéthyl-4') pipérazinyl]-3propyl)-8 diphényl-1,3 tétrahydro-1,3a, 8,12b(dibenzo[b,f] pyrazolo [3,4-d])azépine [compound 10]",Ptosis Total,[1]; [16],"20,8"
same,Ptosis 30 minutes,[1]; [17],1
same,Ptosis 60 minutes,[1]; [17],6
same,Ptosis 90 minutes,[1]; [17],"5,8"
same,Ptosis 120 minutes,[1]; [17],8
same,Ptosis T = 0,"[1]; product i.p. 150 mg/kg, before tétrabénazine, score 0-4 per eye",0
same,% de protection,"[1]; ptosis, product i.p. 150 mg/kg 30 min before tétrabénazine 32 mg/kg i.v.",31%
same,% d'augmentation par rapport aux témoins,[2]; product i.p. 150 mg/kg,205%
same,variation de température T= 2h,[2]; product i.p. 150 mg/kg,"+2,4"
same,variation de température T=3h,[2]; product i.p. 150 mg/kg,"+1,4"
same,variation de température T=4h,[2]; product i.p. 150 mg/kg,"+0,6"
same,% de protection,"[3]; hypothermie, product i.p. 150 mg/kg 30 min before tétrabénazine 32 mg/kg i.v.",53%
same,Température après tétrabénazine 30 minutes,[3]; [16],"-1,7"
same,Température après tétrabénazine 60 minutes,[3]; [16],"-1,9"
same,Température après tétrabénazine 90 minutes,[3]; [16],"+0,6"
same,Température après tétrabénazine 120 minutes,[3]; [16],-1
same,Température après tétrabénazine Total,[3]; [16],-4
same,DL 50,"[4]; souris femelles, 2880 min",>750 mg/kg
same,Mortalité %,"[4]; 200 mg/kg, 2880 min",0%
same,Mortalité en 1 heure,[4]; [10],0
same,Mortalité en 48 h.,[4]; [10],0
same,Mortalité %,"[4]; 300 mg/kg, 2880 min",0%
same,Mortalité en 1 heure,[4]; [18],0
same,Mortalité en 48 h.,[4]; [18],0
same,Mortalité %,"[4]; 750 mg/kg, 2880 min",0%
same,Mortalité en 1 heure,[4]; [19],0
same,Mortalité en 48 h.,[4]; [19],0
same,Mortalité en 1 heure,[4]; [20],0
same,Mortalité en 48 heures,[4]; [20],1
